Source: ChEMBL document CHEMBL2069209, “Identification of selective tubulin inhibitors as potential anti-trypanosomal agents” (Bioorg Med Chem Lett, 2012)

Assays:
Trypanosoma brucei = test: Antitrypanosomal activity against bloodstream form of Trypanosoma brucei 427 after 48 hrs by MTS assay; type: functional, organism-based; settings: Trypanosoma brucei, 427, 48 h
[1] = Selectivity ratio of IC50 for human SKBR3 cells to IC50 for bloodstream form of Trypanosoma brucei 427; type: ADME, cell-based, SK-BR-3; settings: read-out: Ratio IC50
SK-BR-3 = test: Growth inhibition of human SKBR3 cells after 48 hrs by MTT assay; type: cell-based; settings: SK-BR-3, 48 h

Row | SMILES | IC50 (Trypanosoma brucei) [µM] | selectivity ratio [1] | IC50 (SK-BR-3) [µM]
1 | Cc1ccc(C)c(COc2cc(NC(=O)c3ccc4c(c3)OCO4)ccc2N(C)S(C)(=O)=O)c1 | 3.22 | 0.1 | –
2 | COc1ccc(CC(=O)Nc2ccc(N(C)S(C)(=O)=O)c(OCc3cc(C)ccc3C)c2)cc1OC | 6.85 | 5 | –
3 | Cc1ccc(C)c(COc2cc(NC(=O)Cc3ccccc3)ccc2N(C)S(C)(=O)=O)c1 | 51.3 | 2.3 | –
4 | CN(c1ccc(NC(=O)c2ccc(Cl)c([N+](=O)[O-])c2)cc1OCc1ccccc1)S(C)(=O)=O | 2.3 | 4 | –
5 | CN(c1ccc(NC(=O)c2ccc(C#N)cc2)cc1OCc1ccccc1)S(C)(=O)=O | 2.8 | 6 | –
6 | Cc1ccc(C)c(COc2cc(NC(=O)c3ccccc3)ccc2N(C)S(C)(=O)=O)c1 | 6.44 | 0.6 | –
7 | COc1ccc(S(=O)(=O)Nc2cccnc2Nc2ccc(O)cc2)cc1 [ABT-751] | 82.1 | – | 0.74
8 | O=C(Nc1ccncc1)C(=O)c1cn(Cc2ccc(Cl)cc2)c2ccccc12 [INDIBULIN] | 114 | – | 0.033
9 | COC(=O)Nc1nc2cc(C(=O)c3cccs3)ccc2[nH]1 [NOCODAZOLE] | 44.2 | – | 0.084
10 | CC(=O)O[C@H]1C(=O)[C@@]2(C)[C@H]([C@H](OC(=O)c3ccccc3)[C@]3(O)C[C@H](OC(=O)[C@H](O)[C@@H](NC(=O)c4ccccc4)c4ccccc4)C(C)=C1C3(C)C)[C@]1(OC(C)=O)CO[C@@H]1C[C@@H]2O [PACLITAXEL] | 0.0046 | – | –
11 | CC[C@]1(O)C[C@@H]2CN(CCc3c([nH]c4ccccc34)[C@@](C(=O)OC)(c3cc4c(cc3OC)N(C)[C@H]3[C@@](O)(C(=O)OC)[C@H](OC(C)=O)[C@]5(CC)C=CCN6CC[C@]43[C@@H]65)C2)C1 [VINBLASTINE] | 0.41 | – | 0.00091
